{"source": "paper PMC7006939", "about": "(ACS pharmacology & translational science, 2019)", "key": {"pirin [1]": {"target": "T1, pirin (Homo sapiens, UniProt O00625)", "T1 sequence (O00625 1-290)": "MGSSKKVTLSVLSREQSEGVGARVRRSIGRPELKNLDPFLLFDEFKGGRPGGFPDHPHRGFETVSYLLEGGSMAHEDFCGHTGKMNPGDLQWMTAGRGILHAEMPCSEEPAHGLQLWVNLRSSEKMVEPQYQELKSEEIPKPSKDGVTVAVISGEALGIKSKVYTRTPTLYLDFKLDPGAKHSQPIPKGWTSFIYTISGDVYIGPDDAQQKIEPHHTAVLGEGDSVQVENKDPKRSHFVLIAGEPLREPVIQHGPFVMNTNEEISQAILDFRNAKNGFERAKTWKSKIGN", "assay": "ITC", "type": "binding"}, "pirin [2]": {"target": "T1, pirin", "assay": "ITC", "type": "binding", "remark": "listed apart in the source"}}, "note": "Where two headings read alike, the source gives them in different places."}
{"smiles": "O=C(Nc1ccc(Cl)cc1)C1CN(C(=O)c2cccc(-c3ccco3)c2)CC(F)(F)C1", "note": "(racemic) [CCG-222740]", "values": [{"measurement": "Kd", "setting": "pirin [1]", "result": 4.3, "unit": "µM"}]}
{"smiles": "O=C(Nc1ccc(Cl)cc1)C1CN(C(=O)c2cc(F)cc(-c3ccncc3)c2)CC(F)(F)C1", "note": "(centres unmarked) [CCG-257081]", "values": [{"measurement": "Kd", "setting": "pirin [2]", "result": 8.5, "unit": "µM"}]}
